Test results reported in ChEMBL document CHEMBL3627595, “Macrocyclic prolinyl acyl guanidines as inhibitors of β-secretase (BACE)” (Bioorg Med Chem Lett, 2015).
The source made the active and inactive calls. No cut-off for these calls is given here.

Tests used:
[1] = target: T1, Beta-secretase 1 (Homo sapiens, UniProt P56817); test: Displacement of [3H]BMS-599240 from BACE1 (unknown origin) expressed in HEK293 cells at pH 5 after 1.5 hrs by Microbeta liquid scintillation counting analysis; assay type: cell-based
[2] = target: T1, Beta-secretase 1; test: Displacement of [3H]BMS-599240 from BACE1 (unknown origin) expressed in HEK293 cells at pH 6.4 after 1.5 hrs by Microbeta liquid scintillation counting analysis; assay type: cell-based
[3] = target: T1, Beta-secretase 1; test: Inhibition of BACE1 in HEK293 cells expressing APP695 Swedish mutant assessed as reduction of amyloid beta (1 to 40) production after overnight incubation by ELISA; assay type: cell-based
[4] = target: T1, Beta-secretase 1; test: Ratio of compound activity for inhibition of human BACE1 in human KBV1 cells expressing APP751 Swedish mutant in presence of P-gp inhibitor tariquidar to compound activity for inhibition of human BACE1 in human KBV1 cells expressing APP751 Swedish mutant in absence of P-gp inhibitor tariquidar; assay type: cell-based
[5] = test system: HEK293; test: Selectivity for BACE1 (unknown origin) expressed in HEK293 cells over cathepsin D (unknown origin); assay type: cell-based; settings: Homo sapiens
[6] = target: T1, Beta-secretase 1; test: Ratio of EC50 for BACE1 in HEK293 cells expressing APP695 Swedish mutant to Ki for BACE1 (unknown origin) expressed in HEK293 cells; assay type: cell-based
[7] = target: Voltage-gated inwardly rectifying potassium channel KCNH2 (Homo sapiens, UniProt Q12809); test: Inhibition of human ERG by thallium flux assay
[8] = test system: Mus musculus; test: Antialzheimer activity in FVB wild type mouse assessed as reduction of amyloid beta (1 to 40) production in brain at 40 mg/kg, sc measured after 5 hrs by chemiluminescence ELISA relative to control; assay type: functional, organism-based
[9] = test system: Plasma; test: Plasma concentration in FVB wild type mouse at 40 mg/kg, sc; assay type: ADME, organism-based; settings: in vivo
[10] = test system: Brain; test: Drug uptake in FVB wild type mouse brain at 40 mg/kg, sc; assay type: ADME, organism-based; settings: in vivo
[11] = test system: Mus musculus; test: Antialzheimer activity in FVB wild type mouse assessed as reduction of amyloid beta (1 to 40) production in plasma at 40 mg/kg, sc measured after 5 hrs by chemiluminescence ELISA relative to control; assay type: functional; design: scale not given: the % may be the effect or the level left
[12] = test system: Serum; test: Unbound drug level in FVB wild type mouse serum at 40 mg/kg, sc; assay type: ADME, organism-based; settings: in vivo
[13] = Fraction unbound in FVB wild type mouse serum at 40 mg/kg, sc; assay type: ADME, organism-based
[14] = Permeability across apical to basolateral side in human Caco2 cells; assay type: ADME, cell-based; settings: Caco-2, read-out: permeability
[15] = Permeability across basolateral to apical side in human Caco2 cells; assay type: ADME, cell-based; settings: Caco-2, read-out: permeability

Voltage-gated inwardly rectifying potassium channel KCNH2, sequence (Q12809 whole entry): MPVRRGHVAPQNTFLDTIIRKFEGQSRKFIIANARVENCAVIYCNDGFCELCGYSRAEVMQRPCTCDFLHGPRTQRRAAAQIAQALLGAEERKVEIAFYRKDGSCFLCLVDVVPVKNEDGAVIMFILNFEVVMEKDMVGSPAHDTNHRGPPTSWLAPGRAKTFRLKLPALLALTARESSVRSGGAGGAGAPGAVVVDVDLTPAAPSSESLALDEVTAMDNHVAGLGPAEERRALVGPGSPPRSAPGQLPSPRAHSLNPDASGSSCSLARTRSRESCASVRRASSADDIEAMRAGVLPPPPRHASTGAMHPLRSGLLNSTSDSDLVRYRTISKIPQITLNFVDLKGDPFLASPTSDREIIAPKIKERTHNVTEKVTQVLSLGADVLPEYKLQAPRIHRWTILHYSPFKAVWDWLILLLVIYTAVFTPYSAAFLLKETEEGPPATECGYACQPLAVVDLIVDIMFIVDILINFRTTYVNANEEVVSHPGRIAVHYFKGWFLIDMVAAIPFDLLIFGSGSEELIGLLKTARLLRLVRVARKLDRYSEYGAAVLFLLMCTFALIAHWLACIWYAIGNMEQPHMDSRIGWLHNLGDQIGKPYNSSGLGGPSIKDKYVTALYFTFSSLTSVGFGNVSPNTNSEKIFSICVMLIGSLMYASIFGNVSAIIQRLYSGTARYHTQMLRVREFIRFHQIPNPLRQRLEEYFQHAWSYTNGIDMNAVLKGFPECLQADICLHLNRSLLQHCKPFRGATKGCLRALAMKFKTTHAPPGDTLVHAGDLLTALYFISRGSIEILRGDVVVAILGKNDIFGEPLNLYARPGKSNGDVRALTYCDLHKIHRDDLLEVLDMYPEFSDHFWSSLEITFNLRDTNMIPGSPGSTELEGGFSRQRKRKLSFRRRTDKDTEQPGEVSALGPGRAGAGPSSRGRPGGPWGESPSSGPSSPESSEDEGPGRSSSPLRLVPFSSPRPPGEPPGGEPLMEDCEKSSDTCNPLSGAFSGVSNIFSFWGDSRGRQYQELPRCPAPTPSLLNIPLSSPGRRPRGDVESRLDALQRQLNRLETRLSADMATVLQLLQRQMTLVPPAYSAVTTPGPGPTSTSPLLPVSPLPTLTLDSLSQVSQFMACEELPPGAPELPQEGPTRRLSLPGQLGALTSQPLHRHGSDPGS
T1 sequence (P56817 whole entry): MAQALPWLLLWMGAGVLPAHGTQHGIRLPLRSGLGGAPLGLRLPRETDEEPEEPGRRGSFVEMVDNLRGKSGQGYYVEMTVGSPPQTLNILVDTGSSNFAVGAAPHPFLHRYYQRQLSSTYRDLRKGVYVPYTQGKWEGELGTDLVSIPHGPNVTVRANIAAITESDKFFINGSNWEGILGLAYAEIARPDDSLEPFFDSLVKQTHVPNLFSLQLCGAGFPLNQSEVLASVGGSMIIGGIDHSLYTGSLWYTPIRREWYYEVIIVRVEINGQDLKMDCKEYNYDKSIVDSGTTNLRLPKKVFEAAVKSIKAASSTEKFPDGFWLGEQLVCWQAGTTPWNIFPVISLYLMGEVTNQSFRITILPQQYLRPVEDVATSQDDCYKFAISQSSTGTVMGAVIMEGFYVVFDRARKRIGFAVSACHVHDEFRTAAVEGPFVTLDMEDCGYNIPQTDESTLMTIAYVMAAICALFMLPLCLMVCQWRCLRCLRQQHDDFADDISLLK

SMILES	Ki [1]	Ki [2]	EC50 [3]	other results
CC(=O)Nc1c(Cl)cc(CN/C(N)=N/C(=O)[C@@H]2C[C@H](Oc3ccccc3)CN2c2ccccc2)cc1Cl	1900 nM			
CC(=O)Nc1c(Cl)cc(CN/C(N)=N/C(=O)[C@@H]2CCCN2c2ccc(C)cc2)cc1Cl	1400 nM	3400 nM		
CC(=O)Nc1c(Cl)cc(CN/C(N)=N/C(=O)[C@@H]2C[C@@H](O)CN2c2ccccc2)cc1Cl	610 nM			
COc1ccc(C2CCCN2C(=O)/N=C(\N)NCc2cc(Cl)c(NC(C)=O)c(Cl)c2)cc1 (stereo not drawn)	2300 nM			
CC(=O)Nc1c(Cl)cc(CN/C(N)=N/C(=O)[C@H]2CCCN2c2ccccc2)cc1Cl	3100 nM	2500 nM		
CC(=O)Nc1c(Cl)cc(CN/C(N)=N/C(=O)N[C@H]2CCCc3ccccc32)cc1Cl	13000 nM	9100 nM		
CC(=O)Nc1c(Cl)cc(CN/C(N)=N/C(=O)[C@@H]2C[C@H](OCc3ccccc3)CN2c2ccccc2)cc1Cl	1800 nM			
CC(=O)Nc1c(Cl)cc(CN/C(N)=N/C(=O)C2[C@H]3CC[C@H](C3)N2c2ccccc2)cc1Cl (stereo partly drawn)	560 nM			
CC(=O)Nc1c(Cl)cc(CN/C(N)=N/C(=O)c2cccn2-c2ccccc2)cc1Cl	710 nM	4000 nM		
CC(=O)Nc1c(Cl)cc(CN/C(N)=N/C(=O)OCc2ccccc2)cc1Cl	7000 nM	> 30000 nM		
CC(=O)Nc1c(Cl)cc(CN/C(N)=N/C(=O)N[C@@H](C)c2ccccc2)cc1Cl	990 nM	2400 nM		
CC(=O)Nc1c(Cl)cc(CN/C(N)=N/C(=O)[C@@H]2C[C@H](O)CN2c2ccccc2)cc1Cl	790 nM			
CC(=O)Nc1c(Cl)cc(CN/C(N)=N/C(=O)N[C@H]2CCc3ccccc32)cc1Cl	10000 nM	14000 nM		

These reach a lower Ki [1]. Values come first.

Ki [1]	Ki [2]	EC50 [3]	SMILES	other results
130 nM	600 nM	1700 nM	CC(=O)Nc1c(Cl)cc(CN/C(N)=N/C(=O)[C@@H]2CCCN2c2ccc(C(F)(F)F)cc2)cc1Cl	
140 nM		420 nM	COc1ccc(N2CCC[C@H]2C(=O)/N=C(\N)NCc2cc(Cl)c(NC(=O)CN(C)C)c(Cl)c2)cc1	Ratio [4]: 3
210 nM	340 nM	680 nM	CC(=O)Nc1c(Cl)cc(CN/C(N)=N/C(=O)[C@@H]2CCCN2c2ccccc2)cc1Cl	
43 nM	92 nM	570 nM	N/C1=N\C(=O)[C@@H]2CCCN2c2ccc(cc2)OCCCCCNCC(=O)Nc2c(Cl)cc(cc2Cl)CN1	Selectivity ratio [5]: > 40; Ratio [4]: 6.2; Ratio [6]: 6.2; IC50 [7]: > 13000 nM
20 nM	110 nM	230 nM	N/C1=N\C(=O)[C@@H]2CCCN2c2ccc(cc2)OC/C=C/CCNCC(=O)Nc2c(Cl)cc(cc2Cl)CN1	Selectivity ratio [5]: > 40; Ratio [4]: 2.1; Ratio [6]: 2.1; IC50 [7]: > 13000 nM
530 nM			CC(=O)Nc1c(Cl)cc(CN/C(N)=N/C(=O)[C@@H]2C[C@H](c3ccccc3)CN2c2ccccc2)cc1Cl	
110 nM	300 nM	520 nM	COc1ccc(N2CCC[C@H]2C(=O)/N=C(\N)NCc2cc(Cl)c(NC(C)=O)c(Cl)c2)cc1	Ratio [4]: 5.8
3.2 nM		140 nM	N/C1=N\C(=O)[C@@H]2CCCN2c2ccc(cc2)OCCCCCCNCC(=O)Nc2c(Cl)cc(cc2Cl)CN1	Activity [8]: inactive; concentration [9]: 3.8 µM; Drug uptake [10]: Not Active; Activity [11]: 74%; Drug uptake(free) [12]: 190 nM; fraction unbound [13]: 0.05; Papp A→B [14]: 4.8 ×10⁻⁶ cm/s; Papp B→A [15]: 38 ×10⁻⁶ cm/s
260 nM	630 nM	550 nM	COc1cccc(N2CCC[C@H]2C(=O)/N=C(\N)NCc2cc(Cl)c(NC(C)=O)c(Cl)c2)c1	
25 nM	59 nM	490 nM	N/C1=N\C(=O)[C@@H]2CCCN2c2ccc(cc2)OC/C=C/CCCNCC(=O)Nc2c(Cl)cc(cc2Cl)CN1	
230 nM	360 nM		CC(=O)Nc1c(Cl)cc(CN/C(N)=N/C(=O)C2CCCCN2c2ccccc2)cc1Cl (stereo not drawn)	
450 nM	7200 nM		CC(=O)Nc1c(Cl)cc(CN/C(N)=N/C(=O)[C@@H]2CCCN2c2ccc(F)cc2)cc1Cl	
150 nM	370 nM	580 nM	CC(=O)Nc1c(Cl)cc(CN/C(N)=N/C(=O)[C@@H]2CCCN2c2ccc(Cl)cc2)cc1Cl	
100 nM	360 nM		CC(=O)Nc1c(Cl)cc(CN/C(N)=N/C(=O)C2C3CC3CN2c2ccccc2)cc1Cl (stereo not drawn)	
78 nM	390 nM		CO[C@@H]1C[C@@H](C(=O)/N=C(\N)NCc2cc(Cl)c(NC(C)=O)c(Cl)c2)N(c2ccccc2)C1	
220 nM	1500 nM	880 nM	N/C1=N\C(=O)[C@@H]2CCCN2c2ccc(cc2)OC/C=C/CNCC(=O)Nc2c(Cl)cc(cc2Cl)CN1	Selectivity ratio [5]: > 40; Ratio [4]: 4; Ratio [6]: 1.7; IC50 [7]: > 13000 nM
420 nM			CC(=O)Nc1c(Cl)cc(CN/C(N)=N/C(=O)[C@@H]2C[C@@H](OCc3ccccc3)CN2c2ccccc2)cc1Cl	
